Earlier results, collected in patent publication US12447051B2, “Multi-functional analgesic-releasing wound dressing” (University of Utah Research Foundation, priority 2020, dated 2025).

Experiments:
[1] = test system: Primary human dermal fibroblast cell cultures; conditions: bupivacaine concentration of the extracts

in vivo degradation | Compound | cytotoxic threshold [1]
– | CCCCN1CCCCC1C(=O)Nc1c(C)cccc1C (centres unmarked) [bupivacaine] | 0.5 % w/w
greater than 6 months | poly(lactide-co-caprolactone) [PLC] | –
